Laboratory results published in ChEMBL document CHEMBL5625167, “In vitro bioevaluation and docking study of dihydrosphingosine and ethambutol analogues against sensitive and multi-drug resistant Mycobacterium tuberculosis” (Eur J Med Chem, 2023).
Converted amounts (≈) assume the structure as drawn. “And” between values parts separate entries of the source, which are not always exact repeats. Equal values may be shown once. The source made the active and inactive calls. No cut-off for these calls is given here.

Experiments:
[1] = test system: Mycobacterium tuberculosis; assay: Additive antimycobacterial activity against Mycobacterium tuberculosis H37Rv ATCC 25618 assessed as fractional inhibitory concentration index incubated for 7 days by resazurin dye based two-dimensional micro dilution checkerboard assay in presence of isoniazid; assay type: functional; conditions: time 7 day
[2] = test system: Staphylococcus aureus; assay: Antibacterial activity against Staphylococcus aureus ATCC 25923 incubated for 18 hrs by resazurin dye based broth microdilution method; assay type: functional
[3] = test system: Mycolicibacterium smegmatis; assay: Antimycobacterial activity against Mycobacterium smegmatis ATCC607 assessed as reduction in bacterial viability at 16 uM incubated for 24 hrs by time kill assay relative to control; assay type: functional
[4] = Cytotoxicity against mouse J774.A1 cells assessed as reduction in cell population incubated for 48 hrs by MTT assay; assay type: toxicity, cell-based
[5] = Cytotoxicity against African green monkey Vero cells assessed as reduction in cell population incubated for 48 hrs by MTT assay; assay type: toxicity, cell-based; conditions: chlorocebus sabaeus
[6] = test system: Mycobacterium tuberculosis; assay: Additive antimycobacterial activity against Mycobacterium tuberculosis H37Rv ATCC 25618 incubated for 7 days by resazurin dye based two-dimensional micro dilution checkerboard assay in presence of amikacin; assay type: functional; conditions: time 7 day
[7] = test system: Mycobacterium tuberculosis; assay: Additive antimycobacterial activity against Mycobacterium tuberculosis H37Rv ATCC 25618 incubated for 7 days by resazurin dye based two-dimensional micro dilution checkerboard assay in presence of levofloxacin; assay type: functional; conditions: time 7 day
[8] = Cytotoxicity against human HepG2 cells assessed as reduction in cell population incubated for 48 hrs by MTT assay; assay type: toxicity, cell-based
[9] = test system: Mycobacterium tuberculosis; assay: Antimycobacterial activity against isoniazid, rifampicin, ethambutol and pyrazinamide sensitive Mycobacterium tuberculosis H37Rv ATCC 25618 assessed as inhibition of bacterial growth incubated for 7 days by resazurin dye based colorimetric method analysis; assay type: functional; conditions: H37Rv ATCC 25618, 168 h, time 7 day
[10] = test system: Mycolicibacterium smegmatis; assay: Antimycobacterial activity against Mycobacterium smegmatis ATCC607 assessed as reduction in bacterial viability at 16 uM measured after 72 hrs by time kill assay in presence of rifampicin relative to control; assay type: functional
[11] = test system: Mycolicibacterium smegmatis; assay: Antimycobacterial activity against Mycobacterium smegmatis ATCC607 incubated for 24 hrs by resazurin dye based broth microdilution method; assay type: functional
[12] = test system: Mycobacterium tuberculosis; assay: Potency index, ratio of ethambutol MIC to test compound MIC for antimycobacterial activity against isoniazid, rifampicin, ethambutol and pyrazinamide sensitive Mycobacterium tuberculosis H37Rv ATCC 25618 assessed as inhibition of bacterial growth incubated for 7 days by resazurin dye based colorimetric method analysis; assay type: functional; conditions: time 7 day
[13] = test system: Mycobacterium tuberculosis; assay: Additive antimycobacterial activity against Mycobacterium tuberculosis H37Rv ATCC 25618 assessed as fractional inhibitory concentration index incubated for 7 days by resazurin dye based two-dimensional micro dilution checkerboard assay in presence of ethambutol; assay type: functional; conditions: time 7 day
[14] = test system: Mycobacterium tuberculosis; assay: Additive antimycobacterial activity against Mycobacterium tuberculosis H37Rv ATCC 25618 assessed as fractional inhibitory concentration index incubated for […] by micro dilution checkerboard assay in presence of rifampicin; assay type: functional
[15] = test system: Mycobacterium tuberculosis; assay: Additive antimycobacterial activity against Mycobacterium tuberculosis H37Rv ATCC 25618 assessed as fractional inhibitory concentration index incubated for 7 days by resazurin dye based two-dimensional micro dilution checkerboard assay in presence of amikacin; assay type: functional; conditions: time 7 day
[16] = test system: Mycobacterium tuberculosis; assay: Antimycobacterial activity against Mycobacterium tuberculosis H37Rv ATCC 25618 incubated for 7 days by resazurin dye based two-dimensional micro dilution checkerboard assay in presence of rifampicin; assay type: functional; conditions: time 7 day
[17] = test system: Mycobacterium tuberculosis; assay: Additive antimycobacterial activity against Mycobacterium tuberculosis H37Rv ATCC 25618 assessed as fractional inhibitory concentration index incubated for 7 days by resazurin dye based two-dimensional micro dilution checkerboard assay in presence of levofloxacin; assay type: functional; conditions: time 7 day
[18] = test system: Klebsiella pneumoniae; assay: Antibacterial activity against Klebsiella pneumoniae ATCC 13883 incubated for 18 hrs by resazurin dye based broth microdilution method; assay type: functional
[19] = test system: Mycobacterium tuberculosis; assay: Additive antimycobacterial activity against Mycobacterium tuberculosis H37Rv ATCC 25618 incubated for 7 days by resazurin dye based two-dimensional micro dilution checkerboard assay in presence of ethambutol; assay type: functional; conditions: time 7 day
[20] = test system: Mycobacterium tuberculosis; assay: Additive antimycobacterial activity against Mycobacterium tuberculosis H37Rv ATCC 25618 incubated for 7 days by resazurin dye based two-dimensional micro dilution checkerboard assay in presence of isoniazid; assay type: functional; conditions: time 7 day
[21] = test system: Mycobacterium tuberculosis; assay: Antimycobacterial activity against Mycobacterium tuberculosis H37Rv ATCC 25618 assessed as fractional inhibitory concentration index incubated for 7 days by resazurin dye based two-dimensional micro dilution checkerboard assay in presence of rifampicin; assay type: functional; conditions: time 7 day
[22] = test system: Mycobacterium tuberculosis; assay: Antimycobacterial activity against Mycobacterium tuberculosis H37Rv ATCC 25618 incubated for 7 days by resazurin dye based two-dimensional micro dilution checkerboard assay in presence of 1-((3,4,5-trimethoxybenzyl)oxy)heptadecan-2-amine; assay type: functional; conditions: time 7 day
[23] = test system: Mycobacterium tuberculosis; assay: Antimycobacterial activity against Mycobacterium tuberculosis H37Rv ATCC 25618 incubated for 7 days by resazurin dye based two-dimensional micro dilution checkerboard assay in presence of 1-(benzyloxy)heptadecan-2-amine; assay type: functional; conditions: time 7 day
[24] = test system: Mycolicibacterium smegmatis; assay: Antimycobacterial activity against Mycobacterium smegmatis ATCC607 assessed as reduction in bacterial viability at 19.5 uM incubated for 24 hrs by time kill assay relative to control; assay type: functional
[25] = test system: Mycolicibacterium smegmatis; assay: Antimycobacterial activity against Mycobacterium smegmatis ATCC607 infected in mouse J774 cells assessed as reduction in intracellular bacterial count at 19.5 to 39 uM measured after 24 hrs; assay type: functional, organism-based; conditions: dose 19.5-39 µM
[26] = test system: Mycobacterium tuberculosis; assay: Antimycobacterial activity against Mycobacterium tuberculosis H37Rv ATCC 25618 assessed as reduction in concentration required to inhibit bacterial growth incubated for 7 days by resazurin dye based two-dimensional micro dilution checkerboard assay in presence of rifampicin relative to control; assay type: functional; set-up: scale not given: the % may be the effect or the level left; conditions: time 7 day
[27] = test system: Mycobacterium tuberculosis; assay: Synergistic antimycobacterial activity against Mycobacterium tuberculosis H37Rv ATCC 25618 incubated for 7 days by resazurin dye based two-dimensional micro dilution checkerboard assay in presence of rifampicin; assay type: functional; conditions: time 7 day
[28] = test system: Mycobacterium tuberculosis; assay: Synergistic antimycobacterial activity against Mycobacterium tuberculosis H37Rv ATCC 25618 assessed as fractional inhibitory concentration index incubated for 7 days by resazurin dye based two-dimensional micro dilution checkerboard assay in presence of rifampicin; assay type: functional; conditions: time 7 day
[29] = test system: Mycolicibacterium smegmatis; assay: Antimycobacterial activity against Mycobacterium smegmatis ATCC607 infected in mouse J774 cells assessed as reduction in intracellular bacterial count at 2 times MIC measured after 24 hrs relative to control; assay type: functional; set-up: scale not given: the % may be the effect or the level left
[30] = test system: Mycolicibacterium smegmatis; assay: Antimycobacterial activity against Mycobacterium smegmatis ATCC607 infected in mouse J774 cells assessed as log reduction in intracellular bacterial count at 2 times MIC measured after 24 hrs relative to control; assay type: functional
[31] = test system: Mycolicibacterium smegmatis; assay: Antimycobacterial activity against Mycobacterium smegmatis ATCC607 infected in mouse J774 cells assessed as reduction in intracellular bacterial count at 32 uM measured after 6 hrs relative to control; assay type: functional; set-up: scale not given: the % may be the effect or the level left
[32] = test system: Mycolicibacterium smegmatis; assay: Antimycobacterial activity against Mycobacterium smegmatis ATCC607 assessed as reduction in bacterial viability at 16 uM by time kill assay; assay type: functional, organism-based; conditions: time 0-72 hrs, TDE = time-dependent effect
[33] = test system: Mycolicibacterium smegmatis; assay: Antimycobacterial activity against Mycobacterium smegmatis ATCC607 infected in mouse J774 cells assessed as log reduction in intracellular bacterial count at MIC in presence of rifampicin measured for 24 hrs; assay type: functional
[34] = test system: Mycolicibacterium smegmatis; assay: Antimycobacterial activity against Mycobacterium smegmatis ATCC607 infected in mouse J774 cells assessed as reduction in intracellular bacterial count at MIC in presence of rifampicin measured for 24 hrs relative to control; assay type: functional; set-up: scale not given: the % may be the effect or the level left
[35] = test system: Mycobacterium tuberculosis; assay: Antimycobacterial activity against Mycobacterium tuberculosis H37Rv ATCC 25618 assessed as induction of morphological changes by measuring disruption and discontinuity of the bacterial envelope at MIC incubated for 96 hrs by TEM analysis; assay type: functional, organism-based
[36] = test system: Mycolicibacterium smegmatis; assay: Intracellular antimycobacterial activity against Mycobacterium smegmatis ATCC607 infected in mouse J774 cells assessed as reduction in bacterial count at 16 to 32 uM measured after 24 hrs; assay type: functional, organism-based; conditions: dose 16-32 µM
[37] = test system: Mycobacterium tuberculosis; assay: Antimycobacterial activity against Mycobacterium tuberculosis H37Rv ATCC 25618 assessed as induction of morphological changes by measuring extrusion of cytosolic material at MIC incubated for 96 hrs by TEM analysis; assay type: functional, organism-based
[38] = test system: Mycobacterium tuberculosis; assay: Antimycobacterial activity against Mycobacterium tuberculosis H37Rv ATCC 25618 assessed as induction of morphological changes by measuring increase in lipid inclusions at MIC incubated for 96 hrs by TEM analysis; assay type: functional, organism-based

Row | Structure (SMILES) | fractional inhibitory concentration index (FICI) [1] | MIC [2] [µM] | Activity [3] [%] | CC50 at 48 h [4] [µM] | CC50 at 48 h [5] [µM] | FIC [6] | FIC [7] | CC50 at 48 h [8] [µM] | MIC [9] | Activity [10] [%] | MIC [11] [µM] | Ratio [12] | fractional inhibitory concentration index (FICI) [13] | fractional inhibitory concentration index (FICI) [15] | fractional inhibitory concentration index (FICI) [17] | MIC [18] [µM] | FIC [19] | FIC [20] | Activity [26] [%] | FIC [27] | also measured
1 | CCCCCCCCCCCCCCCC(N)COCc1ccccc1 (configuration not stated) | 0.75 | 16 (≈ 5.79 µg/mL) | 24.56 | 5.94 | 42.2 | 0.5 | 0.25 | 99.2 | 4.5 µM (≈ 1.63 µg/mL) | >99.9 | 16 (≈ 5.79 µg/mL) | 80 | 1 | 0.75 | 0.75 | 128 (≈ 46.3 µg/mL) | 0.5 | 0.25 |  |  | fractional inhibitory concentration index (FICI) [14]: 0.56; FIC [16]: 0.5; fractional inhibitory concentration index (FICI) [21]: 0.56
2 | CO[C@H]1/C=C/O[C@@]2(C)Oc3c(C)c(O)c4c(O)c(c(/C=N/N5CCN(C)CC5)c(O)c4c3C2=O)NC(=O)/C(C)=C\C=C\[C@H](C)[C@H](O)[C@@H](C)[C@@H](O)[C@@H](C)[C@H](OC(C)=O)[C@@H]1C [RIFAMPIN] |  |  |  |  |  |  |  |  | 0.04 µM and 0.03 µg/mL |  | 19.5 (≈ 16 µg/mL) |  |  |  |  |  |  |  |  |  | FIC [22]: 0.25; FIC [23]: 0.063; Activity [24]: 27%; Activity [25]: Active
3 | CCCCCCCCCCCCCCCC(N)CO (configuration not stated) | 0.75 | 16 (≈ 4.34 µg/mL) |  | 10.2 | 125 | 0.5 | 0.5 | 129 | 1.52 µM (≈ 0.413 µg/mL) |  | 128 (≈ 34.8 µg/mL) | 237 | 0.63 | 0.56 | 0.53 | 512 (≈ 139 µg/mL) | 0.5 | 0.25 | 87.5 | 0.25 | fractional inhibitory concentration index (FICI) [28]: 0.38
4 | CCCCCCCCCCCCCCCC(N)COCc1cc(OC)c(OC)c(OC)c1 (configuration not stated) | 0.63 | ≤ 4 | 99.9 | 120 | 17.7 | 0.126 | 0.127 | 149 | 8 µM (≈ 3.61 µg/mL) | >99.9 | 16 (≈ 7.23 µg/mL) | 45 | 0.63 | 0.63 | 0.63 | 512 (≈ 231 µg/mL) | 0.013 | 0.125 | 75 | 0.25 | Activity [29]: 33.3%; Activity [30]: 1.9 log10CFU/ml; Activity [31]: 6.2%; Activity [32]: Tde; Activity [33]: >1 log10CFU/ml; Activity [34]: 12.2%; Activity [35]: Active; Activity [36]: Active; Activity [37]: Active; Activity [38]: Active; fractional inhibitory concentration index (FICI) [28]: 0.5
